# Data reported in patent publication US7547513B2, “Mutants of deoxycytidine kinase having extended enzymatic activity” (priority 2001, dated 2009).
# “And” between values parts separate entries of the source, which are not always exact repeats. Equal entries are not always repeated.
# Experiments:
# Type in all cases: cell-based
# [1] = system: Escherichia coli β7334 Δdeo tdk cdd::Tn10 pSUTrc (dck allele: none); conditions: strain β7334, dck allele none; 18 h 37° C., MS medium + IPTG
# Protocol: (§1) The culture was then diluted 100 times in the same medium supplemented with IPTG and distributed on 96-well microplates in a final volume of 100 μl in a series of dilutions from to 2 to 2 nucleotide analogues. Each analogue was tested twice. After incubation for 18 hours at 37° C. with stirring, the MIC was determined as corresponding to the lowest analogue concentration for which no turbidity was detectable.
# (§2) The toxicity of nucleoside analogues, deviating either by the sugar or by the base, was evaluated in strains of genotype Δdeo tdk cdd expressing on a plasmid the different dckH alleles, wild-type allele, D133E, R104Q and double mutant.
# (§3) The minimum inhibitory concentrations, expressed in microM, were determined as indicated in the section Materials and Methods.
# [2] = system: Escherichia coli β7338 Δdeo tdk cdd::Tn10 pSUDCK4 (dck:D133E-R104Q); conditions: strain β7338, dck allele D133E R104Q; 18 h 37° C., MS medium + IPTG
# Protocol: as §1, §2, §3
# [3] = system: Escherichia coli β7336 Δdeo tdk cdd::Tn10 pSUDCK2 (dck:D133E); conditions: strain β7336, dck allele D133E; 18 h 37° C., MS medium + IPTG
# Protocol: The culture was then diluted 100 times in the same medium supplemented with IPTG and distributed on 96-well microplates in a final volume of 100 μl in a series of dilutions from to 2 to 2 nucleotide analogues. Each analogue was tested twice.
# as §2, §3
# [4] = system: Escherichia coli β7347 Δdeo tdk cdd::Tn10 (dckH R104Q, amkG T39A); assay: microbe, parasite or virus in culture; conditions: for minimum inhibitory concentration (MIC): strain β7347, dckH R104Q, amkG T39A
# Protocol: as §1
# (§4) We jointly expressed, within the genetic context Δdeo tdk cdd each of the four alleles of dckH with each of the two wt and T39A alleles of amkG, and tested the toxicity of the different nucleoside analogues already tested previously (Table 4 below).
# as §3
# [5] = system: Escherichia coli β7341 Δdeo tdk cdd::Tn10 (dckH D133E, amkG wt); assay: microbe, parasite or virus in culture; conditions: for minimum inhibitory concentration (MIC): strain β7341, dckH D133E, amkG wt
# Protocol: as §1, §4, §3
# [6] = system: Escherichia coli β7339 Δdeo tdk cdd::Tn10 (dckH none, amkG wt); assay: microbe, parasite or virus in culture; conditions: for minimum inhibitory concentration (MIC): strain β7339, dckH none, amkG wt
# Protocol: as §1, §4, §3
# [7] = system: Escherichia coli β7342 Δdeo tdk cdd::Tn10 (dckH R104Q, amkG wt); assay: microbe, parasite or virus in culture; conditions: for minimum inhibitory concentration (MIC): strain β7342, dckH R104Q, amkG wt
# Protocol: as §1, §4, §3
# [8] = system: Escherichia coli β7343 Δdeo tdk cdd::Tn10 (dckH D133E R104Q, amkG wt); assay: microbe, parasite or virus in culture; conditions: for minimum inhibitory concentration (MIC): strain β7343, dckH D133E R104Q, amkG wt
# Protocol: as §1, §4, §3
# [9] = system: Escherichia coli β7345 Δdeo tdk cdd::Tn10 (dckH wt, amkG T39A); assay: microbe, parasite or virus in culture; conditions: for minimum inhibitory concentration (MIC): strain β7345, dckH wt, amkG T39A
# Protocol: as §1, §4, §3
# [10] = system: Escherichia coli β7340 Δdeo tdk cdd::Tn10 (dckH wt, amkG wt); assay: microbe, parasite or virus in culture; conditions: for minimum inhibitory concentration (MIC): strain β7340, dckH wt, amkG wt
# Protocol: as §1, §4, §3
# [11] = system: Escherichia coli β7348 Δdeo tdk cdd::Tn10 (dckH D133E R104Q, amkG T39A); assay: microbe, parasite or virus in culture; conditions: for minimum inhibitory concentration (MIC): strain β7348, dckH D133E R104Q, amkG T39A
# Protocol: as §1, §4, §3
# [12] = system: Escherichia coli β7346 Δdeo tdk cdd::Tn10 (dckH D133E, amkG T39A); assay: microbe, parasite or virus in culture; conditions: for minimum inhibitory concentration (MIC): strain β7346, dckH D133E, amkG T39A
# Protocol: as §1, §4, §3
# [13] = system: Escherichia coli β7344 Δdeo tdk cdd::Tn10 (dckH none, amkG T39A); assay: microbe, parasite or virus in culture; conditions: for minimum inhibitory concentration (MIC): strain β7344, dckH none, amkG T39A
# Protocol: as §1, §4, §3
# [14] = Escherichia coli, read-out: minimum inhibitory concentration (MIC)
structure (smiles),measurement,setting,value
"Nc1nc(=O)n([C@H]2C[C@H](O)[C@@H](CO)O2)cc1Br [5-bromo-dC, 5-bromo-2-deoxycytidine]",minimum inhibitory concentration (MIC),[1],"> (no toxicity could be detected at the highest analogue concentration, 1.28 mM)"
same,minimum inhibitory concentration (MIC),[2],"> (no toxicity could be detected at the highest analogue concentration, 1.28 mM)"
O=c1[nH]c(=O)n([C@H]2C[C@H](O)[C@@H](CO)O2)cc1CO [5-hm-dU],minimum inhibitory concentration (MIC),[1],"> (no toxicity could be detected at the highest analogue concentration, 1.28 mM)"
same,minimum inhibitory concentration (MIC),[2],"> (no toxicity could be detected at the highest analogue concentration, 1.28 mM)"
O=c1[nH]c(=O)n([C@H]2C[C@H](O)[C@@H](CO)O2)cc1I [5-iodo-dU],minimum inhibitory concentration (MIC),[1],"> (no toxicity could be detected at the highest analogue concentration, 1.28 mM)"
same,minimum inhibitory concentration (MIC),[2],"> (no toxicity could be detected at the highest analogue concentration, 1.28 mM)"
O=c1ccn([C@H]2CC[C@@H](CO)O2)c(=O)[nH]1 [ddU],minimum inhibitory concentration (MIC),[1],"> (no toxicity could be detected at the highest analogue concentration, 1.28 mM)"
same,minimum inhibitory concentration (MIC),[2],"> (no toxicity could be detected at the highest analogue concentration, 1.28 mM)"
"O=c1[nH]cnc2c1ncn2[C@H]1C[C@H](O)[C@@H](CO)O1 [dI, 2′-deoxyinoside]",minimum inhibitory concentration (MIC),[1],"> (no toxicity could be detected at the highest analogue concentration, 1.28 mM)"
same,minimum inhibitory concentration (MIC),[2],320 µM
same,minimum inhibitory concentration (MIC),[3],1 µM and 1.25 µM
same,minimum inhibitory concentration (MIC),[4],"> (no toxicity could be detected at the highest analogue concentration, 1280 microM)"
same,minimum inhibitory concentration (MIC),[5],≦1.25 microM
same,minimum inhibitory concentration (MIC),[6],"> (no toxicity could be detected at the highest analogue concentration, 1280 microM)"
same,minimum inhibitory concentration (MIC),[7],"> (no toxicity could be detected at the highest analogue concentration, 1280 microM)"
same,minimum inhibitory concentration (MIC),[8],1280 µM
same,minimum inhibitory concentration (MIC),[9],"> (no toxicity could be detected at the highest analogue concentration, 1280 microM)"
same,minimum inhibitory concentration (MIC),[10],"> (no toxicity could be detected at the highest analogue concentration, 1280 microM)"
same,minimum inhibitory concentration (MIC),[11],1280 µM
same,minimum inhibitory concentration (MIC),[12],≦1.25 microM
same,minimum inhibitory concentration (MIC),[13],"> (no toxicity could be detected at the highest analogue concentration, 1280 microM)"
O=c1[nH]c(=O)n([C@H]2C[C@H](O)[C@@H](CO)O2)cc1Cl [5-chloro-dU],minimum inhibitory concentration (MIC),[1],"> (no toxicity could be detected at the highest analogue concentration, 1.28 mM)"
same,minimum inhibitory concentration (MIC),[2],"> (no toxicity could be detected at the highest analogue concentration, 1.28 mM)"
Cc1cn([C@H]2C[C@H](O)[C@@H](CN)O2)c(=O)[nH]c1=O [5′-amino-dT],minimum inhibitory concentration (MIC),[1],"> (no toxicity could be detected at the highest analogue concentration, 1.28 mM)"
same,minimum inhibitory concentration (MIC),[2],"> (no toxicity could be detected at the highest analogue concentration, 1.28 mM)"
"Nc1nc(=O)n([C@H]2C[C@H](O)[C@@H](CO)O2)cc1I [5-iodo-dC, 5-iodo-2′-deoxycytidine]",MIC,[4]; [14],≤ 1.25 µM
same,MIC,[5]; [14],≤ 1.25 µM
same,MIC,[6]; [14],> 1280 µM
same,MIC,[7]; [14],≤ 1.25 µM
same,MIC,[8]; [14],≤ 1.25 µM
same,MIC,[9]; [14],≤ 1.25 µM
same,MIC,[10]; [14],> 1280 µM
same,MIC,[11]; [14],≤ 1.25 µM
same,MIC,[12]; [14],≤ 1.25 µM
same,MIC,[13]; [14],> 1280 µM
Nc1ccn([C@H]2CC[C@@H](CO)O2)c(=O)n1 [ddC],minimum inhibitory concentration (MIC),[1],"> (no toxicity could be detected at the highest analogue concentration, 1.28 mM)"
same,minimum inhibitory concentration (MIC),[2],"> (no toxicity could be detected at the highest analogue concentration, 1.28 mM)"
Cc1cn([C@H]2C[C@H](O)[C@@H](CO)O2)c(N)nc1=O [5-methyl-disoC],minimum inhibitory concentration (MIC),[1],"> (no toxicity could be detected at the highest analogue concentration, 1.28 mM)"
same,minimum inhibitory concentration (MIC),[2],"> (no toxicity could be detected at the highest analogue concentration, 1.28 mM)"
Cc1cn([C@H]2CC[C@@H](CO)O2)c(=O)[nH]c1=O [ddT],minimum inhibitory concentration (MIC),[1],"> (no toxicity could be detected at the highest analogue concentration, 1.28 mM)"
same,minimum inhibitory concentration (MIC),[2],"> (no toxicity could be detected at the highest analogue concentration, 1.28 mM)"
Nc1nc2c(ncn2[C@@H]2C[C@H](O)[C@@H](CO)O2)c(=O)o1 [d-oxanosine],minimum inhibitory concentration (MIC),[1],"> (no toxicity could be detected at the highest analogue concentration, 1.28 mM)"
same,minimum inhibitory concentration (MIC),[2],"> (no toxicity could be detected at the highest analogue concentration, 1.28 mM)"
same,minimum inhibitory concentration (MIC),[3],80 µM
"NC(=O)c1cn([C@H]2C[C@H](O)[C@@H](CO)O2)cn1 [dY, 1-(2′-deoxyribofuranosyl)imidazole-4-carboxamide]",minimum inhibitory concentration (MIC),[1],"> (no toxicity could be detected at the highest analogue concentration, 1.28 mM)"
same,minimum inhibitory concentration (MIC),[2],"> (no toxicity could be detected at the highest analogue concentration, 1.28 mM)"
same,minimum inhibitory concentration (MIC),[4],"> (no toxicity could be detected at the highest analogue concentration, 1280 microM)"
same,minimum inhibitory concentration (MIC),[5],"> (no toxicity could be detected at the highest analogue concentration, 1280 microM)"
same,minimum inhibitory concentration (MIC),[6],"> (no toxicity could be detected at the highest analogue concentration, 1280 microM)"
same,minimum inhibitory concentration (MIC),[7],"> (no toxicity could be detected at the highest analogue concentration, 1280 microM)"
same,minimum inhibitory concentration (MIC),[8],"> (no toxicity could be detected at the highest analogue concentration, 1280 microM)"
same,minimum inhibitory concentration (MIC),[9],"> (no toxicity could be detected at the highest analogue concentration, 1280 microM)"
same,minimum inhibitory concentration (MIC),[10],"> (no toxicity could be detected at the highest analogue concentration, 1280 microM)"
same,minimum inhibitory concentration (MIC),[11],"> (no toxicity could be detected at the highest analogue concentration, 1280 microM)"
same,minimum inhibitory concentration (MIC),[12],1280 µM
same,minimum inhibitory concentration (MIC),[13],"> (no toxicity could be detected at the highest analogue concentration, 1280 microM)"
